{"source": "paper PMC2957683", "about": "“IKKβ inhibitor identification: a multi-filter driven novel scaffold” (2010)", "target": "T1, IKKβ (Homo sapiens, UniProt O14920)", "T1 construct": "gene IKBKB", "T1 sequence (O14920 1-756)": "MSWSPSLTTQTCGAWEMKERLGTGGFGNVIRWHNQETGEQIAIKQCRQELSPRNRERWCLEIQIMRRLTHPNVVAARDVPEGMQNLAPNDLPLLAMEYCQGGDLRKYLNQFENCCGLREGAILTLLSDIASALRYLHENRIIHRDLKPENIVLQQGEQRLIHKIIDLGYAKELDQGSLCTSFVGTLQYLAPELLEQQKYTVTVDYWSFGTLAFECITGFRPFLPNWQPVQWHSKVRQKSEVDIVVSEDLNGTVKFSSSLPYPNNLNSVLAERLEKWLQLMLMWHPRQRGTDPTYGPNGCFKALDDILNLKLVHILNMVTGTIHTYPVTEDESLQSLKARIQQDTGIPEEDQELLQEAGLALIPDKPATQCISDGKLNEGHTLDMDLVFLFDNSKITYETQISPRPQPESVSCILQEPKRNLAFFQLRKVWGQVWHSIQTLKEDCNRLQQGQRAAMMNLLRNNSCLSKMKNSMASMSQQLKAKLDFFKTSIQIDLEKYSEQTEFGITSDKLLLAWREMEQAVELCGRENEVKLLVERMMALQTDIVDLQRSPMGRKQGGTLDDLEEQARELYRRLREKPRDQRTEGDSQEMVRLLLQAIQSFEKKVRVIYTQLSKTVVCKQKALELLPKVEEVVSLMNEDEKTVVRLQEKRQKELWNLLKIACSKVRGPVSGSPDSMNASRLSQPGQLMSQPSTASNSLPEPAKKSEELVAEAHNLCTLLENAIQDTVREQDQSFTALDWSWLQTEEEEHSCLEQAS", "test": "IMAP TR-FRET kinase assay with IKKβ enzyme (Millipore), IκBα-derived peptide substrate, […] ATP", "assay_type": "biochemical"}
{"compound": "N#Cc1c(C2CCCNC2)cc(-c2ccccc2O)nc1N", "note": "(centres unmarked) [Bayer-5a]", "values": [{"measurement": "IC50", "value": 0.17, "unit": "µM"}]}
{"compound": "COc1ccc(-c2nc3c(c(SCC(=O)Nc4cccc(O)c4)n2)Cc2c(CO)cnc(C)c2O3)cc1", "note": "[VH01]", "values": [{"measurement": "IC50", "value": 20.3, "unit": "µM"}]}
